Source: patent US9700540B2, “Dronedarone for use in leishmaniasis, formulations and associations for use in leishmaniasis” (SANOFI, priority 2012, dated 2017)

Columns and labels:
[1] = test system: intramacrophagic amastigotes of L. donovani; experiment: Growth inhibition of intramacrophagic amastigotes of L. donovani in RAW 264.7; format: cell-based, Leishmania donovani
From the text: (§1) Strains of Leishmania donovani (MHOM/ET/67/HU3) and Leishmania major (MHOM/SU/73/5-ASKH) were used for this study.
(§2) 2/Intramacrophagic amastigotes of L. donovani and L. major (parasites hosted in macrophages, as found in dermis, during the cutaneous Leishmaniosis infection).
(§3) The model of axenic amastigotes is cultivated in a medium based on M199 and allows defining the intrinsic activity of a substance on the parasite itself while the model of intramacrophagic amastigotes integrates the capacity of the substance to cross the membrane of the macrophage and that of the phagolysosome.
(§4) The used macrophages are cells RAW 264.7, which cultivate in a medium based on DMEM with 10% of foetal serum of veal.
(§5) The solutions of dronedarone in the DMSO, meglumine antimoniate and miltefosine in the water, were prepared before every experiment. The evaluations in vitro were the object of three independent experiments.
(§6) The assays were realized by quantifying the parasitic DNA with the SYBRGREEN as described by Audisio and al. (Eur. J. Med. Chem., 52: 44-50, 2012).

[2] = test system: Intramacrophagic amastigotes of L. amazonensis; experiment: Growth inhibition of intramacrophagic amastigotes of L. amazonensis in RAW 264.7 (SYBRGREEN, qPCR); format: cell-based, Leishmania amazonensis
From the text: (§7) A strain of Leishmania amazonensis (MHOM/BR/73/M2269) were used. Dronedarone hydrochloride and meglumine antimoniate were supplied by Sanofi. Amphotericin B (désoxycholate) and miltefosine were bought at Sigma-Aldrich.
2/Intramacrophagic amastigotes of L. amazonensis (parasites hosted in macrophages, as found in dermis, during the cutaneous Leishmaniosis infection).
(§8) The first cellular model which cultivates in a medium based on M199, allows defining the intrinsic activity of a substance on the parasite itself while the second cellular model integrates the capacity of the substance to cross the membrane of the macrophage and that of the phagolysosome. The used macrophages are cells RAW 264.7, which cultivate in medium based on DMEM with 10% of foetal serum of veal. • Determination of the IC50 of each of the molecules
(§9) Solutions of dronedarone in the DMSO, meglumine antimoniate and miltefosine in the water, and amphotericin B in an isotonic glucose solution (G5) were prepared before every experiment. The evaluations in vitro were the object of three independent experiments duplicate. The assays were realized by quantifying the parasitic DNA with the SYBRGREEN as described by Audisio and al. (Eur. J. Med. Chem., 52: 44-50, 2012) as well as by qPCR for intramacrophagic amastigotes with amplification of the alpha-tubuline of the parasite. The results obtained with both methods are similar.

[3] = test system: L. major's intramacrophagic amastigotes; experiment: Growth inhibition of intramacrophagic amastigotes of L. major in RAW 264.7; format: cell-based, Leishmania major
From the text: as §1, §2, §3, §4, §5, §6

[4] = test system: macrophages (cells RAW 264.7); experiment: Cytotoxicity on macrophages, Blue Trypan; format: cell-based, human
Description: (§10) Study of the cytotoxicity on macrophages (cells RAW 264.7)
(§11) The non-toxic maximal concentration (CMA) was determined by the technique to the Blue Trypan according to has method described in Audisio and al. (Eur. J. Med. Chem., 52: 44-50, 2012).

[5] = test system: L. major's axenic amastigotes; experiment: Growth inhibition of axenic amastigotes of L. major; format: cell-based, Leishmania major; conditions: 72 hours
From the text: as §1
(§12) 1/Axenic amastigotes of L. donovani and L. major (isolated parasites)
as §3, §5, §6

[6] = test system: Axenic amastigotes of L. amazonensis; experiment: Growth inhibition of axenic amastigotes of L. amazonensis (SYBRGREEN DNA quantification); format: cell-based, Leishmania amazonensis; conditions: 72 hours of contact
From the text: as §7
1/Axenic amastigotes of L. amazonensis (isolated parasites)
as §8, §9

[7] = test system: axenic amastigotes of L. donovani; experiment: Growth inhibition of axenic amastigotes of L. donovani; format: cell-based; conditions: Leishmania donovani, 72 hours
From the text: as §1, §12, §3, §5, §6

[8] = Cytotoxicity on macrophages, Blue Trypan; format: cell-based, human
Description: as §10, §11

[9] = test system: Leishmania amazonensis strains resistant to meglumine antimoniate; experiment: Chemosensitivity of L. amazonensis strains resistant to meglumine antimoniate, promastigote form; format: cell-based
Description: In vitro study on Leishmania amazonensis strains resistant to meglumine antimoniate (Glucantime®)
On Leishmania amazonensis strains resistant to_meglumine antimoniate (IC50=200 mM) under promastigote form, chemosensitivity to dronedarone is similar that one observed on strains that are not resistant to meglumine antimoniate (active principle of Glucantime®).

[10] = RAW 264.7 macrophages, Blue Trypan
[11] = Leishmania donovani, RAW264.7, 72 hours
[12] = Leishmania amazonensis, RAW264.7, RAW 264.7, 72 hours of contact
[13] = Leishmania major, RAW264.7, 72 hours

Compound meglumine antimoniate has an IC50 ([1]; 72 hours) of 390 ± 40.5 µM, an IC50 ([2]; RAW 264.7, 72 hours of contact) of 134 ± 10.4 µM and an IC50 ([3]; 72 hours) of 348 ± 79.9 µM. The “non-toxic maximal concentration (CMA)” value [4, 10] was > 200 µM, the IC50 [5] was > 1000 µM and the IC50 [6] was 908 ± 159 µM.

For `C[C@@H]1[C@H](O)[C@@H](C)/C=C/C=C/C=C/C=C/C=C/C=C/C=C/[C@H](O[C@@H]2O[C@H](C)[C@@H](O)[C@H](N)[C@@H]2O)C[C@@H]2O[C@](O)(C[C@@H](O)C[C@@H](O)[C@H](O)CC[C@@H](O)C[C@@H](O)CC(=O)O[C@H]1C)C[C@H](O)[C@H]2C(=O)O` [amphotericin B], the IC50 ([2]; RAW 264.7, 72 hours of contact) was 0.047 ± 0.005 µM, the “non-toxic maximal concentration (CMA)” value [4, 10] was 6.25 µM and the IC50 [6] was 0.031 ± 0.002 µM.

For `CCCCCCCCCCCCCCCCOP(=O)([O-])OCC[N+](C)(C)C` [miltefosine], the IC50 [7] was 13 ± 1.25 µM, the IC50 [1, 11] was 0.88 ± 0.1 µM and the IC50 [2, 12] was 1.87 ± 0.032 µM. For the same compound, the IC50 [3, 13] was 0.72 ± 0.11 µM, the “non-toxic maximal concentration (CMA)” value ([4]; human) was 50 µM and the IC50 ([5]; Leishmania major) was 5.57 ± 1.5 µM. The IC50 ([6]; Leishmania amazonensis) was 0.9 ± 0.2 µM.

With `CCCCc1oc2ccc(NS(C)(=O)=O)cc2c1C(=O)c1ccc(OCCCN(CCCC)CCCC)cc1` [dronedarone, 2-n-Butyl-3-[4-(3-di-n-butylaminopropoxy)benzoyl]-5-methylsulphonamidobenzofuran] the IC50 [7] was 47.4 ± 6.27 µM, the “therapeutic index (CC50/IC50)” value [1] was > 7 and the IC50 [1, 11] was 1.67 ± 0.1 µM. The IC50 [2, 12] was 0.5 ± 0.22 µM, the “therapeutic index (CC50/IC50)” value [3] was > 9 and the IC50 [3, 13] was 1.32 ± 0.12 µM. The CC50 [8] was > 12.5 µM, the “non-toxic maximal concentration (CMA)” value ([4]; human) was 12.5 µM and the IC50 ([5]; Leishmania major) was 2.55 ± 0.51 µM. For the same compound, the IC50 ([6]; Leishmania amazonensis) was 0.34 ± 0.06 µM and the “chemosensitivity compared with strains not resistant to meglumine antimoniate” value [9] was “similar”.
